Measurements: patent US20240383856A1 (Zedira GmbH, priority 2021, published 2024)

How the values were obtained:
[1] = target: T1, recombinant human transglutaminase 2 (Homo sapiens, UniProt P21980); assay: Transglutaminase assay (DCC-assay): incorporation of dansylcadaverine into dimethylcasein; format: biochemical; settings: recombinant human TG2 10 nM; dansylcadaverine incorporation into dimethylcasein; read-out: IC50 TG2
T1 construct: purchased Zedira T022
T1 sequence (P21980 1-687): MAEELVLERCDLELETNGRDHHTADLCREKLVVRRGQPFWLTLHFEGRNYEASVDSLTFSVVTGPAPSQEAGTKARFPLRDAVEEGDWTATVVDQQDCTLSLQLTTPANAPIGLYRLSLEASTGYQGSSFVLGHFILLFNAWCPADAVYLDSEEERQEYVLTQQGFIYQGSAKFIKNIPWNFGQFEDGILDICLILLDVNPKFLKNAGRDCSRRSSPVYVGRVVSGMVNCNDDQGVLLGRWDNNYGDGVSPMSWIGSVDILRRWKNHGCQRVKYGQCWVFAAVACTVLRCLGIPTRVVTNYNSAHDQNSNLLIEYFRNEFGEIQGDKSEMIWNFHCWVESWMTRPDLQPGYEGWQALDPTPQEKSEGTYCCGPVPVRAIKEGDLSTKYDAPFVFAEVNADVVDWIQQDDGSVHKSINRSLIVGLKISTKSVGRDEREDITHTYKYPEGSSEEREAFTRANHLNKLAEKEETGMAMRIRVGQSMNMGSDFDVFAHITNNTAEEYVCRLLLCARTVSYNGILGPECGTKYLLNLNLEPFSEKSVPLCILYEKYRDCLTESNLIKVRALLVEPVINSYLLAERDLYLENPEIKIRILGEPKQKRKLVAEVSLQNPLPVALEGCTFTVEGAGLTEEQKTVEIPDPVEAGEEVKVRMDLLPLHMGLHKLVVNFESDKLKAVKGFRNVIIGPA
Protocol: To illustrate the advantage of branched alkyl moieties over aromatic moieties, we refer to reference compounds Ref. 2 (ZED1227, U.S. Pat. No. 9,434,763 B2) and Ref. 3 (A8, ZED1047). Inhibition data were determined using the classical fluorescent transamidation assay (dansylcadaverine incorporation into methylated casein, DCC-assay) as described [Buchold, C.; Hils, M.; Gerlach, U.; Weber, J.; Pelzer, C.; Heil, A.; Aeschlimann, D.; Pasternack, R. Features of ZED1227: The First-In-Class Tissue Transglutaminase Inhibitor Undergoing Clinical Evaluation for the Treatment of Celiac Disease. Cells 2022, 11, 1667. https://doi.org/10.3390/cells11101667]. Casein is one of the best known high molecular weight (24 kDa) protein substrates for transglutaminases. Please note, the IC50 value of Ref. 3 (A8) published in U.S. Pat. No. 9,434,763 B2 cannot be compared to the present data, relying on a fluorogenic isopeptidase assay.
To this extent, inhibition data were determined using the classical fluorescent transamidation assay (dansylcadaverine incorporation into methylated casein, DCC-assay) as described in Büchold et al. [Büchold, C.; Hils, M.; Gerlach, U.; Weber, J.; Pelzer, C.; Heil, A.; Aeschlimann, D.; Pasternack, R. Features of ZED1227: The First-In-Class Tissue Transglutaminase Inhibitor Undergoing Clinical Evaluation for the Treatment of Celiac Disease. Cells 2022, 11, 1667. https://doi.org/10.3390/cells11101667]. Casein is one of the best known high molecular weight (24 kDa) protein substrates for transglutaminases. Inhibition data of the inventive compounds was compared with inhibition of compounds disclosed in U.S. Pat. No. 9,434,763 B2, particularly, compound A8, which is denoted herein as Reference 3. It is noteworthy that the IC50 values of compounds A8 published in U.S. Pat. No. 9,434,763 B2 and E16 from U.S. Pat. No. 11,072,634 B2 cannot be compared to the present data, relying on a fluorogenic isopeptidase assay.
For the determination of potency of inhibitors against tissue transglutaminase, the incorporation of dansylcadaverine into dimethylcasein (Zedira product T036, Lorand et al., Anal Biochem, 1971, 44:221-31) was measured using recombinant human transglutaminase 2 (Zedira Product T022).
The tissue transglutaminase is diluted in buffer (50 mM Tris-HCl, 7.5 mM CaCl2), 150 mM NaCl, pH=7.4). The final concentration of TG2 in the assay is 10 nM.
A 10 mM inhibitor stock solution is prepared in DMSO, and from this a serial 1:2-fold dilution series is prepared also in DMSO. Each of the initial dilutions is subsequently diluted 1:50-fold with buffer (50 mM Tris-HCl, 7.5 mM CaCl2), 150 mM NaCl, pH=7.4) to yield the final working dilutions containing 2% (v/v) DMSO.
15 μl of inhibitor working dilution are added per well of a 96 well microtiter plate. As control, 15 μl of a 2% (v/v) DMSO solution prepared using the buffer mentioned above are added per well.
Immediately before starting the assay, 600 μl transglutaminase working solution are added to 11.4 ml assay buffer (50 mM Tris-HCl, 10 mM CaCl2), 10 mM glutathione, 2.5% glycerol, 16.7 µM dansylcadaverine, 4 uM N,N-dimethylcasein, 200 mM NaCl, pH=8.0). 285 μl of this reaction mix are added per well containing the inhibitor.
Increase in fluorescence is measured using λex=330 nm and λem=500 nm at 37° C. for 30 min. A slope of the increase in fluorescence between 20 and 30 min is calculated for determination of the IC50 value (inhibitor concentration at which 50% of the initial activity is blocked).
Analysis of enzymatic activity is performed by calculation of the slope of an increase in fluorescence intensity. IC50 values are calculated by plotting the enzymatic activity (as percentage from control containing 2% DMSO instead of inhibitor) against the inhibitor concentration. IC50 is defined as the inhibitor concentration blocking 50% of initial enzyme activity.

[2] = Caco-2 permeability assay (CacoReady kit); format: in vitro ADME; settings: human, Caco-2, Caco-2 barrier, CacoReady kit; above 1×10^−6 cm/s classified as permeable
Protocol: Permeability coefficients (Papp values) were obtained from Caco-2 barrier studies predicting oral/intestinal bioavailability of the tested compounds. The assays were performed by using CacoReady™ ready-to-use kits from ReadyCell according to the manufacturers protocol.

[3] = logD by shake flask method (octanol / PBS pH 7.4, HPLC); format: physicochemical; settings: octanol / PBS pH 7.4, shake flask
Protocol: In order to classify the inventive compounds according to their lipophilicity, LogD values (distribution coefficient) were determined by means of the well-established shake flask method, measuring the partition of a compound between an octanol and phosphate-buffered saline (PBS, pH 7.4) by HPLC.
The LogD is pH dependent and is a “predictor” for in-vivo properties. LogD combines lipophilicity (intrinsic structural property of the molecule, logP) and ionizability (pKa). Compounds with a moderate lipophilicity (LogD values from 0 to 3) are usually advantaged for oral absorption, being in balance between solubility and permeability. However, sophisticated formulation of a compound might improve oral bioavailability for highly lipophilic compounds.

IC50 [1] | Papp [2] | logD [3] | SMILES
40 to 400 nM | 1 to 10 ×10⁻⁶ cm/s | 1 to 3 | CNC(=O)C(=O)CC[C@H](NC(=O)c1cc(C)oc1C)C(=O)Nc1cccn(CC(=O)NC2C3CC4CC(C3)CC2C4)c1=O (stereo partly drawn) [II-37, (S)-2-(2,5-dimethylfuran-3-carboxamido)-N1-(1-(2-(2-adamantylamino)-2-oxoethyl)-2-oxo-1,2-dihydropyridin-3-yl)-N6-methyl-5-oxohexanediamide]
400 to 2500 nM | 1 to 10 ×10⁻⁶ cm/s | 3 to 5 | CNC(=O)C(=O)CC[C@H](NC(=O)c1nc(C)c(C)s1)C(=O)Nc1cccn(CC(=O)NC2C3CC4CC(C3)CC2C4)c1=O (stereo partly drawn) [II-38, (S)-2-(4,5-dimethylthiazole-2-carboxamido)-N1-(1-(2-(2-adamantylamino)-2-oxoethyl)-2-oxo-1,2-dihydropyridin-3-yl)-N6-methyl-5-oxohexanediamide]
40 to 400 nM | 1 to 10 ×10⁻⁶ cm/s | 1 to 3 | CNC(=O)C(=O)CC[C@H](NC(=O)c1nc(Br)cs1)C(=O)Nc1cccn(CC(=O)NC2C3CC4CC(C3)CC2C4)c1=O (stereo partly drawn) [II-39, (S)-2-(4-bromothiazole-2-carboxamido)-N1-(1-(2-(2-adamantylamino)-2-oxoethyl)-2-oxo-1,2-dihydropyridin-3-yl)-N6-methyl-5-oxohexanediamide]
< 40 nM | < 1 ×10⁻⁶ cm/s | 3 to 5 | CNC(=O)C(=O)CC[C@H](NC(=O)c1cc(Br)cs1)C(=O)Nc1cccn(CC(=O)NC2C3CC4CC(C3)CC2C4)c1=O (stereo partly drawn) [II-40, (S)-2-(4-bromothiophene-2-carboxamido)-N1-(1-(2-(2-adamantylamino)-2-oxoethyl)-2-oxo-1,2-dihydropyridin-3-yl)-N6-methyl-5-oxohexanediamide]
40 to 400 nM | 1 to 10 ×10⁻⁶ cm/s | 3 to 5 | CNC(=O)C(=O)CC[C@H](NC(=O)c1scc(Br)c1C)C(=O)Nc1cccn(CC(=O)NC2C3CC4CC(C3)CC2C4)c1=O (stereo partly drawn) [II-41, (S)-2-(4-bromo-3-methylthiophene-2-carboxamido)-N1-(1-(2-(2-adamantylamino)-2-oxoethyl)-2-oxo-1,2-dihydropyridin-3-yl)-N6-methyl-5-oxohexanediamide]
40 to 400 nM | 1 to 10 ×10⁻⁶ cm/s | 1 to 3 | CNC(=O)C(=O)CC[C@H](NC(=O)c1sccc1Br)C(=O)Nc1cccn(CC(=O)NC2C3CC4CC(C3)CC2C4)c1=O (stereo partly drawn) [II-42, (S)-2-(3-bromothiophene-2-carboxamido)-N1-(1-(2-(2-adamantylamino)-2-oxoethyl)-2-oxo-1,2-dihydropyridin-3-yl)-N6-methyl-5-oxohexanediamide]

The next lines start with the molecule.

SMILES | IC50 [1] | Papp [2] | logD [3]
CNC(=O)C(=O)CC[C@H](NC(=O)c1csc(Br)c1)C(=O)Nc1cccn(CC(=O)NC2C3CC4CC(C3)CC2C4)c1=O (stereo partly drawn) [II-30, (S)-2-(5-bromothiophene-3-carboxamido)-N1-(1-(2-(2-adamantylamino)-2-oxoethyl)-2-oxo-1,2-dihydropyridin-3-yl)-N6-methyl-5-oxohexanediamide] | < 40 nM | 1 to 10 ×10⁻⁶ cm/s | 3 to 5
CNC(=O)C(=O)CC[C@H](NC(=O)c1nc(Cl)sc1C)C(=O)Nc1cccn(CC(=O)NC2C3CC4CC(C3)CC2C4)c1=O (stereo partly drawn) [II-31, (S)-2-(2-chloro-5-methylthiazole-4-carboxamido)-N1-(1-(2-(2-adamantylamino)-2-oxoethyl)-2-oxo-1,2-dihydropyridin-3-yl)-N6-methyl-5-oxohexanediamide] | 40 to 400 nM | 1 to 10 ×10⁻⁶ cm/s | 1 to 3
CNC(=O)C(=O)CC[C@H](NC(=O)c1nc(Cl)sc1Cl)C(=O)Nc1cccn(CC(=O)NC2C3CC4CC(C3)CC2C4)c1=O (stereo partly drawn) [II-32, (S)-2-(2,5-dichlorothiazole-4-carboxamido)-N1-(1-(2-(2-adamantylamino)-2-oxoethyl)-2-oxo-1,2-dihydropyridin-3-yl)-N6-methyl-5-oxohexanediamide] | 40 to 400 nM | 1 to 10 ×10⁻⁶ cm/s | 1 to 3
CNC(=O)C(=O)CC[C@H](NC(=O)c1nc(Br)sc1Br)C(=O)Nc1cccn(CC(=O)NC2C3CC4CC(C3)CC2C4)c1=O (stereo partly drawn) [II-33, (S)-2-(2,5-dibromothiazole-4-carboxamido)-N1-(1-(2-(2-adamantylamino)-2-oxoethyl)-2-oxo-1,2-dihydropyridin-3-yl)-N6-methyl-5-oxohexanediamide] | 40 to 400 nM | > 10 ×10⁻⁶ cm/s | 1 to 3
CNC(=O)C(=O)CC[C@H](NC(=O)c1nc(Br)sc1C)C(=O)Nc1cccn(CC(=O)NC2C3CC4CC(C3)CC2C4)c1=O (stereo partly drawn) [II-34, (S)-2-(2-bromo-5-methylthiazole-4-carboxamido)-N1-(1-(2-(2-adamantylamino)-2-oxoethyl)-2-oxo-1,2-dihydropyridin-3-yl)-N6-methyl-5-oxohexanediamide] | 40 to 400 nM | > 10 ×10⁻⁶ cm/s | 1 to 3
CNC(=O)C(=O)CC[C@H](NC(=O)c1csc(Br)n1)C(=O)Nc1cccn(CC(=O)NC2C3CC4CC(C3)CC2C4)c1=O (stereo partly drawn) [II-35, (S)-2-(2-bromothiazole-4-carboxamido)-N1-(1-(2-(2-adamantylamino)-2-oxoethyl)-2-oxo-1,2-dihydropyridin-3-yl)-N6-methyl-5-oxohexanediamide] | 40 to 400 nM | 1 to 10 ×10⁻⁶ cm/s | 1 to 3
CNC(=O)C(=O)CC[C@H](NC(=O)c1csc(Cl)n1)C(=O)Nc1cccn(CC(=O)NC2C3CC4CC(C3)CC2C4)c1=O (stereo partly drawn) [II-36, (S)-2-(2-chlorothiazole-4-carboxamido)-N1-(1-(2-(2-adamantylamino)-2-oxoethyl)-2-oxo-1,2-dihydropyridin-3-yl)-N6-methyl-5-oxohexanediamide] | 40 to 400 nM | 1 to 10 ×10⁻⁶ cm/s | 1 to 3
